Columns and labels:
[1] = tested on: patients having hormone refractory prostate cancer (HRPCa); assay: Area under the Curve (AUC) analysis of health-related QoL domain scores, one year follow-up assumed; assay type: in vivo, human
Text: The Kaplan-Meier product limit method may provide biased results if study data are obtained under certain conditions such as staggered entry of subjects into the study and/or incomplete follow-up (Biometrics. 1989; 5:781-795). Thus, a second analysis was implemented to verify that the conclusions derived from the Kaplan-Meier method would remain robust to the length of follow-up. The assumption was that all patients were followed for one year. Patients who discontinued from the study prior to one year of observation had their last observation for all health-related QoL domains carried forward through the remainder of the year. Similarly, patients who had not completed one year of observation had their health-related QoL data carried forward through one year. If the patient experienced a clinical event within the one year period, the last observation was not carried forward. The Area under the Curve (AUC) value for each domain was computed by multiplying the health-related QoL domain score by the respective duration of that score. Finally, AUC values were aggregated across all subjects within each respective treatment group (atrasentan (10 mg), atrasentan (2.5 mg), and placebo). Aggregated AUC values for each domain were compared for differences between treatment groups using a t-test.

[2] = tested on: patients having hormone refractory prostate cancer (HRPCa); assay: Time to disease or PSA progression across treatment groups; assay type: in vivo, human; settings: intent-to-treat population
Description: Patients received treatment with 10 mg (N=89) or 2.5 mg (N=95) of atrasentan or placebo (N=104) until experiencing a clinical event indicative of disease progression such as palliative opiate treatment of new bone or visceral pain, palliative radiation treatment of new bone pain, or new tumor growth symptoms requiring intervention or treatment with chemotherapy.

SMILES: CCCCN(CCCC)C(=O)CN1C[C@H](c2ccc3c(c2)OCO3)[C@@H](C(=O)O)[C@@H]1c1ccc(OC)cc1 [atrasentan, (2R,3R,4S)-2-(4-methoxyphenyl)-4-(1,3-benzodioxol-5-yl)-1-(((N,N-dibutylamino)carbonyl)methyl)pyrrolidine-3-carboxylic acid]
- AUC results ([1]; 2.5 mg, except for dyspnea, social/family, functional well-being, and FACT-P domain scores): significantly improved
- AUC analysis, responses in the 10 mg and 2.5 mg treatment groups ([1]; 10 mg vs 2.5 mg): not statistically differentiable
- AUC analysis, atrasentan treatment vs placebo groups ([1]; Intent to Treat population): no statistical differences
- AUC analysis vs placebo ([1]; per-protocol population, every health-related QoL domain score): strong trends in favor
- AUC for the health-related QoL domain scores ([1]; physical functioning, social functioning, and pain, p<0.05): significantly longer
- differences in either the time to disease or PSA progression across treatment groups [2]: no statistically significant differences

Reference: patent publication US20030092757A1, “Favorable modulation of health-related quality of life and health-related quality-adjusted time-to-progression of disease in patients with prostate cancer” (priority 2001, published 2003)
